This passage reports IC50, Emax and remaining activity results from patent publication US20240376094A2, “SELECTIVE BCL-XL PROTAC COMPOUNDS AND METHODS OF USE” (Les Laboratoires Servier, priority 2021, published 2024).

What all share (format): cell-based
The subject of test [1] is COR-L105. Briefly: CellTiter-Glo proliferation assay, COR-L105. The note with it: Homo sapiens, COR-L105, 120 h, COR-L105, 5 days; for Emax: read-out: COR-L105 Span (max). In short, it runs like this:
(§1)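 Both lines grown in RPMI-1640 + 10% FBS. COR-L105 plated flat at 1,000 cells/well overnight; NCI-H1650 grown as spheroids, 3,000 cells/well, 72 h. Compounds at 0.508 nM-10 μM final for 5 days, 37° C. ATP read by CellTiter-Glo (3D version for spheroids); IC50 from variable-slope fit normalized to untreated cells.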
(ATP-based viability assays read luminescence as a measure of living cells.)

Test [2] addresses T1, endogenous BCL-xL (Homo sapiens, UniProt Q07817).
T1 construct: endogenous in cells; host or cells: COR-L105 (ECACC No. 92031918); NCI-H1650 (ATCC No. CRL-5883)
Briefly: Degradation of endogenous BCL-xL in COR-L105 (ProteinSimple Jess). The note with it: COR-L105, 24 h, COR-L105, dose 300 nM, read-out: % BCL-xL vs. Untreated, COR-L105. As to the method:
The BCL-xL degrader low molecular weight compounds were tested against two endogenous cancer cell lines: • COR-L105: ECACC No. 92031918 cultured in RPMI-1640+10% FBS • NCI-H1650: (ATCC No. CRL-5883 cultured in RPMI-1640+10% FBS
The ability of the BCL-xL degrader low molecular weight compounds to degrade endogenous BCL-xL was assessed using the ProteinSimple 2-40 kDa Jess Separation Module.
Cell lines were cultured in media that is optimal for their growth at 5% CO2, 37° C. in a tissue culture incubator. Prior to seeding for the degradation assay, the cells were split at least 2 days before the assay to ensure optimal growth density. On the day of seeding, adherent cells were lifted off tissue culture flasks using 0.25% trypsin. Cell viability and cell density were determined using a cell counter (Vi-Cell XR Cell Viability Analyzer, Beckman Coulter). Cells with higher than 85% viability were seeded for the assay.
The COR-L105 and the NCI-H1650 cell line were seeded in 6-well clear TC-treated multiple well plates (Costar® cat. #3516). Cells were seeded at a density of 2,000,000 cells per well in 2.5 mL of standard growth media. Plates were incubated at 5% CO2, 37° C. overnight in a tissue culture incubator. On the day of dosing, BCL-xL degrader low molecular weight compounds and a BCL-xL inhibitor control were prepared at 6× in standard growth media. The prepared drug treatments were then added to the cells resulting in a final concentration of 100-300 nM and a final volume of 3.0 mL per well. A control well of untreated cells was also included in the study. Each drug concentration was tested in singlet. Plates were incubated at 5% CO2, 37° C. for 24 hours in a tissue culture incubator.
After 24 hours, the adherent cells were lifted off tissue culture plates using 0.25% trypsin. Standard growth media was added to quench the trypsin and centrifuged for 5 minutes at 1500 rpm. Cell pellets were washed once with cold PBS and centrifuged for 5 minutes at 1500 rpm. Cells were then washed with 1 mL cold PBS and transferred to a 1.5 mL eppendorf tube. Cells were centrifuged for 10 minutes at ≥10,000 g at 4° C. in a benchtop mini-centrifuge. The entire supernatant was discarded and cells were resuspended thoroughly in 50 μL of RIPA lysis buffer, generated by the manufacturer's protocol (ProteinSimple, Cat. #CBS401: Lysis Kit—RIPA Buffer for Charge Assays). Lysates were incubated on ice for 30 minutes. Following incubation, lysates were spun in a benchtop mini-centrifuge for 15 minutes at full speed at 4° C. Supernatant was carefully transferred to a new eppendorf tube for downstream analysis.
Protein was quantified using a Pierce™ BCA Protein Assay Kit (ThermoFisher, cat #23225) following the manufacturer's instructions. A standard curve was prepared by adding 25 μL of each concentration of reference samples from a Pierce™ Bovine Serum Albumin Standard Pre-Diluted Set (ThermoFisher, cat #23208). Each reference sample was run in duplicate. Testing samples were prepared by diluting cell lysates 1:5 in UltraPure™ DNase/RNase-Free Distilled Water and tested in duplicates of 25 μL each. The BCA working reagent was prepared by addition of 50 parts of BCA Reagent A with 1 part of BCA Reagent B. For each testing well, 200 μL of BCA working reagent was added. The plate was incubated at 37° C. for 30 minutes. A SpectraMax M Series Multi-Mode Microplate Reader was used to measure the absorbance at 562 nm. A standard curve generated by the Pierce™ Bovine Serum Albumin Standard Pre-Diluted Set was used to normalize and calculate the BCA concentration of cell lysates. Only values that fell within the range of the standard curve were accepted for quantification.
The ProteinSimple 2-40 kDa Jess Separation Module was used to detect BCL-xL degradation in treated versus untreated lysates following the manufacturer's instructions (25-Capillary Cartridge, 8 pack, 2-40 kDa, cat #SM W012). […]

Test [3] concerns NCI-H1650. Briefly: CellTiter-Glo 3D proliferation assay, NCI-H1650 spheroids. The note with it: Homo sapiens, NCI-H1650, 120 h, 5 days; for Emax: read-out: NCI-H1650 Span (Amax). In short, it runs like this: as §1

What is called IC50 is the concentration needed to halve the response being measured.

T1 sequence (Q07817 whole entry): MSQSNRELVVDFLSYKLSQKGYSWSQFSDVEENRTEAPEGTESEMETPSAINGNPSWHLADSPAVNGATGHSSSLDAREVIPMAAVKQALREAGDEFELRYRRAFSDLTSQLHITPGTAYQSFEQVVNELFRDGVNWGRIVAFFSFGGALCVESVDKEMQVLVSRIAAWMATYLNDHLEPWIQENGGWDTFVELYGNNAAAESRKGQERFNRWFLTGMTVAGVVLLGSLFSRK

Turning to `Cc1ncsc1-c1ccc([C@H](C)NC(=O)[C@@H]2C[C@@H](O)CN2C(=O)[C@@H](NC(=O)c2ccc(C(=O)N3CCN(CC#Cc4ccc(OCCCc5sc(N6CCCc7c6nnc(Nc6nc8ccccc8s6)c7C)nc5C(=O)O)c(F)c4)CC3)cc2F)C(C)(C)C)cc1` [Example 43, 2-(3-(benzo[d]thiazol-2-ylamino)-4-methyl-6,7-dihydropyrido [2,3-c]pyridazin-8(5H)-yl)-5-(3-(2-fluoro-4-(3-(4-(3-fluoro-4-(((S)-1-((2S,4R)-4-hydroxy-2-(((S)-1-(4-(4-methylthiazol-5-yl)phenyl)ethyl)carbamoyl)pyrrolidin-1-yl)-3,3-dimethyl-1-oxobutan-2-yl)carbamoyl)benzoyl)piperazin-1-yl)prop-1-yn-1-yl)phenoxy)propyl)thiazole-4-carboxylic acid], in test [1], the IC50 was 0.0748 µM and the Emax came out at 85.9%. Moreover, in test [2], the remaining activity at 0.3 µM was determined as 19.9%. Moreover, in test [3], the IC50 was found to be 0.00422 µM and the Emax came to 80.3%.
As to `Cc1ncsc1-c1ccc([C@H](C)NC(=O)[C@@H]2C[C@@H](O)CN2C(=O)[C@@H](NC(=O)CSCC(=O)N2CCN(CC#Cc3ccc(OCCCc4sc(N5CCCc6c5nnc(Nc5nc7ccccc7s5)c6C)nc4C(=O)O)c(F)c3)CC2)C(C)(C)C)cc1` [Example 37, 2-(3-(benzo[d]thiazol-2-ylamino)-4-methyl-6,7-dihydropyrido [2,3-c]pyridazin-8(5H)-yl)-5-(3-(2-fluoro-4-(3-(4-(2-((2-(((S)-1-((2S,4R)-4-hydroxy-2-(((S)-1-(4-(4-methylthiazol-5-yl)phenyl)ethyl)carbamoyl)pyrrolidin-1-yl)-3,3-dimethyl-1-oxobutan-2-yl)amino)-2-oxoethyl)thio)acetyl)piperazin-1-yl)prop-1-yn-1-yl)phenoxy)propyl)thiazole-4-carboxylic acid], in test [1], the IC50 was 0.623 µM and the Emax turned out to be 88.5%. In addition, the remaining activity at 0.3 µM in test [2] came out at 82.4%. For the same molecule, in test [3], the IC50 is 0.0397 µM and the Emax was determined as 107%.
For `Cc1ncsc1-c1ccc([C@H](C)NC(=O)[C@@H]2C[C@@H](O)CN2C(=O)[C@@H](NC(=O)CCC(=O)N2CCN(CCOC34CC5(C)CC(C)(CC(Cn6ncc(-c7ccc(N8CCCc9c8nnc(Nc8nc%10ccccc%10s8)c9C)nc7C(=O)O)c6C)(C5)C3)C4)CC2)C(C)(C)C)cc1` [Example 49, 6-(3-(benzo[d]thiazol-2-ylamino)-4-methyl-6,7-dihydropyrido [2,3-c]pyridazin-8(5H)-yl)-3-(1-(((1r,3s,5R,7S)-3-(2-(4-(4-(((S)-1-((2S,4R)-4-hydroxy-2-(((S)-1-(4-(4-methylthiazol-5-yl)phenyl)ethyl)carbamoyl)pyrrolidin-1-yl)-3,3-dimethyl-1-oxobutan-2-yl)amino)-4-oxobutanoyl)piperazin-1-yl)ethoxy)-5,7-dimethyladamantan-1-yl)methyl)-5-methyl-1H-pyrazol-4-yl)picolinic acid] the same measures were 0.311 µM, 92.1%, more than 90%, 0.0441 µM and 89%.
The corresponding values for `Cc1ncsc1-c1ccc(CNC(=O)[C@@H]2C[C@@H](O)CN2C(=O)[C@@H](NC(=O)CCCCCCCCCCC(=O)N2CCN(CC#Cc3ccc(OCCCc4sc(N5CCCc6c5nnc(Nc5nc7ccccc7s5)c6C)nc4C(=O)O)c(F)c3)CC2)C(C)(C)C)c(O)c1` [Example 45, 2-(3-(benzo[d]thiazol-2-ylamino)-4-methyl-6,7-dihydropyrido [2,3-c]pyridazin-8(5H)-yl)-5-(3-(2-fluoro-4-(3-(4-(12-(((S)-1-((2S,4R)-4-hydroxy-2-((2-hydroxy-4-(4-methylthiazol-5-yl)benzyl)carbamoyl)pyrrolidin-1-yl)-3,3-dimethyl-1-oxobutan-2-yl)amino)-12-oxododecanoyl)piperazin-1-yl)prop-1-yn-1-yl)phenoxy)propyl)thiazole-4-carboxylic acid] are 0.0683 µM, 83%, 40.1%, 0.00627 µM and 81.2%.
Consider `Cc1ncsc1-c1ccc(CNC(=O)[C@@H]2C[C@@H](O)CN2C(=O)[C@@H](NC(=O)C2(F)CC2)C(C)(C)C)c(OCC(=O)NCCCCCN2CCN(CC#Cc3ccc(OCCCc4sc(N5CCCc6c5nnc(Nc5nc7ccccc7s5)c6C)nc4C(=O)O)c(F)c3)CC2)c1` [Example 53, 2-(3-(benzo[d]thiazol-2-ylamino)-4-methyl-6,7-dihydropyrido [2,3-c]pyridazin-8(5H)-yl)-5-(3-(2-fluoro-4-(3-(4-(5-(2-(2-(((2S,4R)-1-((S)-2-(1-fluorocyclopropane-1-carboxamido)-3,3-dimethylbutanoyl)-4-hydroxypyrrolidine-2-carboxamido)methyl)-5-(4-methylthiazol-5-yl)phenoxy)acetamido)pentyl)piperazin-1-yl)prop-1-yn-1-yl)phenoxy)propyl)thiazole-4-carboxylic acid], for which the IC50 came out at 0.0334 µM in test [1] and 0.00446 µM in test [3]. The Emax came to 97.9% in test [1] and 79.3% in test [3]. Moreover, in test [2], the remaining activity at 0.3 µM amounted to 48.3%.
`Cc1ncsc1-c1ccc(CNC(=O)[C@@H]2C[C@@H](O)CN2C(=O)[C@@H](NC(=O)COCCOCCOCC(=O)N2CCN(CC#Cc3ccc(OCCCc4sc(N5CCCc6c5nnc(Nc5nc7ccccc7s5)c6C)nc4C(=O)O)c(F)c3)CC2)C(C)(C)C)cc1` [Example 40, 2-(3-(benzo[d]thiazol-2-ylamino)-4-methyl-6,7-dihydropyrido [2,3-c]pyridazin-8(5H)-yl)-5-(3-(2-fluoro-4-(3-(4-((S)-13-((2S,4R)-4-hydroxy-2-((4-(4-methylthiazol-5-yl)benzyl)carbamoyl)pyrrolidine-1-carbonyl)-14,14-dimethyl-11-oxo-3,6,9-trioxa-12-azapentadecanoyl)piperazin-1-yl)prop-1-yn-1-yl)phenoxy)propyl)thiazole-4-carboxylic acid]: in test [1], half-maximal inhibition (IC50) required 0.107 µM and the Emax turned out to be 82.1%. In addition, the remaining activity at 0.3 µM in test [2] worked out at 71.4%. In test [3], the IC50 was found to be 0.0156 µM and the Emax worked out at 87.3%.
